Results: patent publication US10538487B2, “Sulfonylureas and related compounds and use of same” (priority 2015, dated 2020)
Like-named read-outs stand apart in the source and are kept apart here.

Biological target: NLRP3 inflammasome (Mus musculus, UniProt Q8R4B8)
Assay: Inhibition of IL-1β release, NLRP3 inflammasome activation assay in BMDM
Type: cell-based
Method: The following assays can be used to determine inhibitory activity of test compounds on the NLRP3 inflammasome using common stimuli such as adenosine triphosphate, nigericin, LeuLeu-OMe or monosodium urate crystals (MSU).
Mouse bone marrow-derived macrophages (BMDM) were derived from bone marrow progenitors isolated from the femurs and tibias of C57BL/6 mice.
BMDM are seeded at 1×10^5/ml. The following day the overnight medium is replaced and cells are stimulated with Ultrapure lipopolysaccharide from Escherichia coli K12 strain (InvivoGen) for 3 h. Medium is removed and replaced with serum free medium (SFM) containing test compound 30 min prior to NLRP3 stimulation. […] ATP can be sourced from Sigma Aldrich, nigericin and MSU from Invivogen and LeuLeu-Ome from Chem-Impex International.
For ELISA and cell death assays cells are seeded in 96 well plates. Supernatants are removed and analysed using ELISA kits according to the manufacturer's instructions (DuoSet® R&D Systems, ReadySetGo!® eBioscience, BD OptEIA™, or Perkin Elmer AlphaLISA®). Cell death is assessed by measurement of LDH release relative to a 100% cell lysis control using the CytoTox96® non-radioactive cytotoxicity assay (Promega).

[1] = inhibition of IL-1β release, class symbols, read-out: Avg. IL-1β IC50 Murine BMDM
[2] = select compounds of the first aspect (Table 10), read-out: BMDM IC50 vs NLRP3
[3] = inhibition of IL-1β release, numeric bounds, read-out: Avg. IL-1β IC50 Murine BMDM

Chain of NLRP3 inflammasome (Q8R4B8 whole entry): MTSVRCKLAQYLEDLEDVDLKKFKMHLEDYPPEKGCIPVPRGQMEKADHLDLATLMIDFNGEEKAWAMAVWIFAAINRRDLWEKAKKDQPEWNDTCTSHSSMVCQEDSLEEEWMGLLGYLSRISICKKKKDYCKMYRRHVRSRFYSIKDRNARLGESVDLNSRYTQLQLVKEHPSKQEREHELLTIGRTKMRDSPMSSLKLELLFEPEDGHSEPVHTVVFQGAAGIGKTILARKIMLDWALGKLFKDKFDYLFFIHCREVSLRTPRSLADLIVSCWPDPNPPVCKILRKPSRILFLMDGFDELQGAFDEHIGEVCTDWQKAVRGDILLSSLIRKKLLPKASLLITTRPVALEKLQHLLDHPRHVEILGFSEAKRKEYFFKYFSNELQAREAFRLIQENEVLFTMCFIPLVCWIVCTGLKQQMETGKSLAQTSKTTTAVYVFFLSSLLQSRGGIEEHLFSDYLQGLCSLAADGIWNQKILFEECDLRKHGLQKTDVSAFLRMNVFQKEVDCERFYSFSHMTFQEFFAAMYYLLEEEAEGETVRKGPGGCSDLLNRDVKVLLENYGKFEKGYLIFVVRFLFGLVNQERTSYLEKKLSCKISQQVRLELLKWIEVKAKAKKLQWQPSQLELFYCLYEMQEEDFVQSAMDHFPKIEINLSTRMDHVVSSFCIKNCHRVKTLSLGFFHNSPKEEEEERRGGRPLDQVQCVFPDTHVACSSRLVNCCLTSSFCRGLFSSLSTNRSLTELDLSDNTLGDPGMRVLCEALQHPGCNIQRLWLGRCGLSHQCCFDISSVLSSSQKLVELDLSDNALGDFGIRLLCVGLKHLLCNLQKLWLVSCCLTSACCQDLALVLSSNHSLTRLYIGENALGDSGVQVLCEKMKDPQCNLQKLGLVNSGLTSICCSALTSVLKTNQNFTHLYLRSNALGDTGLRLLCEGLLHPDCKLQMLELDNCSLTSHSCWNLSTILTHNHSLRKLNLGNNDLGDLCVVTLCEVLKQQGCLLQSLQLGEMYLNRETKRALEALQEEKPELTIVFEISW

Compound	IC50 [1] [nM]	other results
CC(C)(O)c1coc(S(=O)(=O)NC(=O)Nc2c3c(cc4c2OCC4)OCC3)c1 [4-(2-hydroxypropan-2-yl)-N-((2,3,6,7-tetrahydrobenzo[1,2-b:4,5-b′]difuran-4-yl)carbamoyl)furan-2-sulfonamide]	< 1000	–
CC(C)(O)c1coc(S(=O)(=O)NC(=O)Nc2c3ccoc3cc3ccoc23)c1 [N-(benzo[1,2-b:4,5-b′]difuran-4-ylcarbamoyl)-4-(2-hydroxypropan-2-yl)furan-2-sulfonamide]	< 100	–
Cc1cnc(C(=O)NCCc2ccc(S(=O)(=O)NC(=O)Nc3c4c(cc5c3CCC5)CCC4)cc2)cn1 [drawing 359]	–	IC50 [2]: 320 nM
O=C(Nc1c2c(cc3c1CCC3)CCC2)NS(=O)(=O)c1cn2c(n1)CCC2 [N-((1,2,3,5,6,7-hexahydro-s-indacen-4-yl)carbamoyl)-6,7-dihydro-5H-pyrrolo[1,2-a]imidazole-2-sulfonamide]	< 1000	–
Cc1cc(C)nc(NC(=O)NS(=O)(=O)c2ccn(C(C)C)n2)n1 [N-((4,6-dimethylpyrimidin-2-yl)carbamoyl)-1-isopropyl-1H-pyrazole-3-sulfonamide]	–	IC50 [3]: > 10000 nM
CCOC(=O)c1coc(S(=O)(=O)NC(=O)Nc2c3c(cc4c2CCC4)CCC3)c1 [ethyl 5-(N-((1,2,3,5,6,7-hexahydro-s-indacen-4-yl)carbamoyl)sulfamoyl)furan-3-carboxylate]	< 1000	–
CC(C)c1cc(Cl)cc(C(C)C)c1NC(=O)NS(=O)(=O)c1ccc2cc(Cl)ccc2c1 [6-chloro-N-((4-chloro-2,6-diisopropylphenyl)carbamoyl)naphthalene-2-sulfonamide]	< 100	–
CC(C)(O)c1coc(S(=O)(=O)NC(=O)Nc2c3c(cc4c2OCC4)CCC3)c1 [4-(2-hydroxypropan-2-yl)-N-((3,5,6,7-tetrahydro-2H-indeno[5,6-b]furan-8-yl)carbamoyl)furan-2-sulfonamide]	< 100	–
CC(C)(O)c1coc(S(=O)(=O)NC(=O)Nc2c3ccccc3cc3ccccc23)c1 [N-(anthracen-9-ylcarbamoyl)-4-(2-hydroxypropan-2-yl)furan-2-sulfonamide]	< 10000	–
O=C(Nc1c2c(cc3c1CCC3)CCC2)NS(=O)(=O)c1ccc([N+](=O)[O-])cc1 [drawing 368]	–	IC50 [2]: 43 nM
CC(C)c1cc(Cl)cc(C(C)C)c1NC(=O)NS(=O)(=O)c1cccc2nccnc12 [N-((4-chloro-2,6-diisopropylphenyl)carbamoyl)quinoxaline-5-sulfonamide]	< 100	–
COc1ccc(OC)c(NC(=O)NS(=O)(=O)c2cc(C(C)(C)O)co2)c1 [N-((2,5-dimethoxyphenyl)carbamoyl)-4-(2-hydroxypropan-2-yl)furan-2-sulfonamide]	< 10000	–
O=C(Nc1c2c(cc3c1CCC3)CCC2)NS(=O)(=O)c1cc(C(=O)O)co1 [5-(N-((1,2,3,5,6,7-hexahydro-s-indacen-4-yl)carbamoyl)sulfamoyl)furan-3-carboxylic acid]	< 10000	–
O=C(Nc1c2c(cc3c1CCC3)CCC2)NS(=O)(=O)c1nnc[nH]1 [N-((1,2,3,5,6,7-hexahydro-s-indacen-4-yl)carbamoyl)-4H-1,2,4-triazole-3-sulfonamide]	< 100	–
CC(C)n1ccc(S(=O)(=O)NC(=O)Nc2c(C(=O)N(C)C)cc(Cl)cc2C2CC2)n1 [5-chloro-3-cyclopropyl-2-(3-((1-isopropyl-1H-pyrazol-3-yl)sulfonyl)ureido)-N,N-dimethylbenzamide]	–	IC50 [3]: > 10000 nM
COc1ccccc1NC(=O)NS(=O)(=O)c1cc(C(C)(C)O)co1 [4-(2-hydroxypropan-2-yl)-N-((2-methoxyphenyl)carbamoyl)furan-2-sulfonamide]	< 10000	–
CC(C)(O)c1coc(S(=O)(=O)NC(=O)Nc2cccc3c2OCCO3)c1 [N-((2,3-dihydrobenzo[b][1,4]dioxin-5-yl)carbamoyl)-4-(2-hydroxypropan-2-yl)furan-2-sulfonamide]	< 10000	–
CC(C)(O)c1coc(S(=O)(=O)NC(=O)Nc2c(C3CC3)cc(Cl)c3c2CCC3)c1 [N-((7-chloro-5-cyclopropyl-2,3-dihydro-1H-inden-4-yl)carbamoyl)-4-(2-hydroxypropan-2-yl)furan-2-sulfonamide]	< 100	–
